{"source": "patent EP0568946A1", "about": "“Compound TAN-1607A, its derivatives, their production, and use thereof” (TAKEDA CHEMICAL INDUSTRIES, LTD., priority 1992, dated 1993)", "test_system": "mice", "experiment": "Acute toxicity test using mice", "type": "in vivo", "conditions": "100 mg/kg administered intraperitoneally", "experimental": "Further, no mice died in an acute toxicity test using mice in which the compound TAN-1607A (100 mg/kg) was administered intraperitoneally."}
{"smiles": "CC(=O)OC(CCCC12OC(C(=O)O)C(O)(C(=O)O)C(C(=O)O)(O1)C(OC(=O)CCCCCCCC/C=C/c1ccccc1)C2O)C(C)C/C=C/c1ccccc1", "note": "(stereo not shown) [TAN-1607A]", "values": [{"measurement": "acute toxicity (mortality)", "value": "no mice died"}]}
